In patent EP0258134A1, “Therapeutical compositions containing benzhydryl thiomethane derivatives” (LABORATOIRE L. LAFON, priority 1986, dated 1988):

Columns and labels:
homme = assay: Therapeutic use in humans; type: in vivo; conditions: trois gélules de 50 mg par jour
Solubility in water = type: physicochemical; conditions: result in words
From the text: Le composé est une poudre blanche, insoluble dans l'éther de pétrole, soluble dans l'éther, l'acé-tate d'éthyle et les alcools. Sa solubilité dans l'eau est inférieure à 0,1%.

souris [1] = assay: Spontaneous motility (actimeter); type: in vivo; conditions: souris, half an hour before the actimeter
Experimental: Après avoir reçu le composé CRL 41 334, les souris sont placées en actimètre où leur motilité est enregistrée pendant 30 minutes.
Une demi-heure après avoir reçu le CRL 41 055, les souris (6 par dose, 12 témoins) sont placées en actimètre où leur motilité est enregistrée pendant 30 minutes.
Une demi-heure après avoir reçu le CRL 40 956, les souris (6 par dose, 12 témoins) sont placées en actimètre ou leur motilité est enregistrée pendant 30 minutes.

souris [2] = assay: Motility reduced by habituation to the enclosure; type: in vivo; conditions: 32 et 128 mg/kg
Experimental: Après 18 heures de séjour dans les actimè-tres, les souris (6 par dose, 12 témoins) reçoivent le composé CRL 41 334. Elles sont aussitôt replacées dans leurs enceintes respectives et, une demi-heure plus tard, on enregistre leur motilité pendant 30 minutes.
Après 18 heures de séjour dans les actimètres, les souris (6 par dose, 12 émoins) reçoivent le CRL 41 055. Elles sontaussitôt replacées dans leurs enceintes respectives et, une demi-heure plus tard, on enregistre leur motilité pendant 30 minutes.

souris [3] = assay: Global behaviour and reactivities, mouse, i.p.; type: in vivo
Experimental: (§1) Le composé CRL 41 334, en suspension dans une solution de gomme arabique, a été administré par voie intrapéritonéale sous un volume de 20 ml/kg chez la souris (mâle, NMRI, C.E.R. Janvier) et de 5 ml/kg chez le rat (mâle, CD₁; SPRAGUE DAWLEY, Charles River).
(§2) Des lots de 3 animaux sont observés avant, puis 15 mn, 30 mn, 1h, 2h, 3h et 24 heures après l'administration du composé CRL 41 334.
(§3) Le CRL 41 055, en suspension dans une solution de gomme arabique, a été administré par voie intrapéritonéale sous un volume de 20 ml/kg chez la souris (mâle, NMRI, Evic Ceba).
(§4) Le CRL 40 956, en suspension dans une solution de gomme arabique a été administré par voie intrapéritonéale sous un volume de 20 ml/kg chez la souris (mâle, NMRI, Evic Céba) et de 5 ml/kg chez le rat (mâle, CD₁, Sprague Dawley, Charles River).
(§5) Des lots de 3 animaux sont observés avant, puis 15 mn, 30 mn, 1 h, 2 h, 3 h et 24 heures après l'administration de CRL 40 956.

souris [4] = assay: Pretoxicity, i.p., 3 mice per dose; type: in vivo
Experimental: as §1
I - PRETOXICITE ( 3 souris par dose)
as §3
Prétoxicite (3 souris par dose)
as §4
Prétoxicité ( 3 souris par dose)

[5] = test system: souris femelles de souche OF₁; assay: Delayed hypersensitivity reaction to sheep red blood cells; type: in vivo; conditions: for Ind. Activité / % d'augmentation du coussinet (mm) m: voie orale; for % d'augmentation du coussinet (mm) m: trois jours avant immunisation
From the text: Selon la méthode de Miller, Lagrange et Mackaness ("Immunopotentiation with BCG II modulation of the response to sheep red blood cells", Journal of the National Cancer Institute 1973, 51, 5, 1669 - 1676).
Le composé à tester est administré par voie orale a des souris femelles de souche OF₁ trois jours avant immunisation.
Les résultats sont exprimés en pourcentage d'augmentation du coussinet plantaire.

rat [6] = assay: Search for stereotyped movements, rat; type: in vivo; conditions: in vivo, 2 mg/kg
From the text: Des lots de 6 rats reçoivent une injection du composé CRL 41 334 ou d'amphétamine, puis sont immédiatement placés dans des boîtes de petites dimensions (20 x 10 x 10 cm) où leur comportement stéréotypeé est coté de 0 à 3 jusqu'à extinction de l'effet.

souris [7] = assay: Asphyxic anoxia (gallamine triethiodide); type: in vivo; conditions: 512 mg/kg, gallamine 32 mg/kg i.p.
Experimental: Des lots de 20 souris reçoivent le composé CRL 41 334 une demi-heure avant l'administration intrapéritonéale de 32 mg/kg de triiodoéthylate de gallamine.
Des lots de 10 souris reçoivent le CRL 40 956 une demi-heure avant l'administration intrapé-ritonéale de 32 mg/kg de triodoéthylate de Gallamine.

rat [8] = assay: Interaction with apomorphine, rat; type: in vivo; conditions: 64 et 256 mg/kg, apomorphine 0,5 mg/kg s.c.
Experimental: Le composé CRL 41 334 est administré à des lots de 6 rats une demi-heure avant l'injection sous-cutanée de 0,5 mg/kg d'apomorphine.
Le CRL 40 956 est administré à des lots de 6 rats une demi-heure avant l'injection sous cutanée de 0,5 mg/kg d'apomorphine.

souris [9] = assay: Intergroup aggressiveness; type: in vivo; conditions: 128 mg/kg
Experimental: Après avoir séjourné pendant 3 semaines dans chacune des moitiés d'une cage séparées par une cloison opaque, des groupes de 3 souris reçoivent le composé CRL 41 334. Une demi-heure plus tard, les deux groupes d'une même cage sont réunis par retrait de la cloison et on note le nombre de combats qui surviennent en 10 minutes. Le test est pratiqué pour moitié sur les souris habituelles (NMRI, C.E.R. Janvier) et pour moitié sur des souris NMRI (Iffa Credo).
Après avoir séjourné pendant 3 semaines dans chacune des moitiés d'une cage séparée par une cloison opaque, des groupes de 3 souris reçoivent le CRL 40 956. Une demi-heure plus tard, les deux groupes d'une même cage sont réunis par retrait de la cloison et on note le nombre de combats qui surviennent en 10 minutes.

souris [10] = assay: Behavioural despair (forced immersion); type: in vivo; conditions: souris, 512 mg/kg
From the text: Une demi-heure après avoir reçu le composé CRL 41 334, des lots de 6 souris (mâles, CD₁, Charles River) sont placés dans un bécher rempli d'eau sur une hauteur de 6 cm. On note la durée totale d'immobilité entre la 2ème et la 6ème minutes suivant l'immersion.
Une demi-heure après avoir reçu le CRL 40 956, des lots de 10 souris (mâles CD₁ Charles River) sont plongées dans une enceinte réduite remplie d'eau sur une hauteur de 6 cm. On note la durée totale d'immobilité entre la 2ème et la 6ème minute suivant l'immersion.

rat [11] = assay: Global behaviour and reactivities, rat, i.p.; type: in vivo; conditions: rat
Experimental: as §1, §2, §4, §5

souris [12] = assay: Interaction with barbital; type: in vivo; conditions: souris, 512 mg/kg, barbital 200 mg/kg i.p.
Experimental: Une demi-heure après l'administration du composé CRL 41 334, des lots de 20 souris reçoivent une injection intrapéritonéale de barbital ([…]).
Une demi-heure après l'administration du CRL 40 956 des lots de 10 souris reçoivent une injection intrapéritonéale de 200 mg/kg de barbital.

NC(=O)CSC(c1ccccc1)c1ccccc1 [CRL 41 055, 2-(benzhydrylthio)acétamide]
thérapeutique humaine comme antidépresseur (homme): s'est avéré utile | solubilité dans l'eau (Solubility in water): insoluble dans l'eau | motilité spontanée (souris [1]; 32 et 128 mg/kg): augmentation de motilité spontanée | activité motrice chez la souris habituée à son enceinte (souris [2]): reprise nette de l'activité motrice | comportement et réactivités (souris [3]; souris, 2 mg/kg i.p.): pas de modifications nettes | comportement et réactivités (souris [3]; souris, 128 mg/kg i.p.): sédation pendant 30 minutes faisant place à une excitation tardive | comportement et réactivités (souris [3]; souris, 8 et 32 mg/kg i.p.): excitation pendant 2 heures | symptômes (souris [4]; 64 mg/kg i.p., after 45 minutes, lasting more than 2 hours): excitation, stéréotypies (reniflements, redressements) | symptômes (souris [4]; 512 mg/kg i.p.): sédation, fréquence respiratoire diminuée, contractions abdominales | convulsions (souris [4]; 512 mg/kg i.p., 18 heures après l'injection): convulsions intermittentes présentes chez toutes les souris | mortalité (souris [4]; 512 mg/kg i.p., après 48 heures): 1/3 | symptômes (souris [4]; 1024 mg/kg i.p.): mêmes symptômes | mortalité (souris [4]; 128 et 256 mg/kg i.p.): Pas de mortalité | symptômes (souris [4]; 128 et 256 mg/kg i.p.): pendant 45 minutes sédation, fréquence respiratoire diminuée

O=C(CSC(c1ccc(F)cc1)c1ccc(F)cc1)NO [CRL 41 335, acide 2-(4,4ʹ-difluorobenzhydrylthio)acétohydroxamique]
solubilité dans l'eau (Solubility in water): insoluble dans l'eau | Ind. Activité ([5]; Exp 1, 0,1 mg/kg): 1,29 | % d'augmentation du coussinet (mm) m ([5]; Exp 1, 0,1 mg/kg): 11,5% | Ind. Activité ([5]; Exp 1, 1 mg/kg): 0,94 | % d'augmentation du coussinet (mm) m ([5]; Exp 1, 1 mg/kg): 8,4% | Ind. Activité ([5]; Exp 1, 10 mg/kg): 1,00 | % d'augmentation du coussinet (mm) m ([5]; Exp 1, 10 mg/kg): 8,9% | Ind. Activité ([5]; Exp 1, 100 mg/kg): 0,77 | % d'augmentation du coussinet (mm) m ([5]; Exp 1, 100 mg/kg): 6,9% | action immunostimulante ([5]; overall statement in the text): dépourvu d'une telle action immostimulante

CC(N)Cc1ccccc1 (stereo not drawn) [amphétamine, reference compound]
durée des stéréotypies (rat [6]): 270 min

ON=CCSC(c1ccccc1)c1ccccc1 [CRL 40 956, 2-(benzhydrylthio)acétaldoxime]
solubilité dans l'eau (Solubility in water): Insoluble dans l'eau | activité motrice spontanée (souris [1]; 512 mg/kg): diminue fortement l'activité motrice spontanée | apparition des convulsions et de la mort (souris [7]): retarde modérément l'apparition des convulsions et de la mort | stéréotypies induites par l'apomorphine (rat [8]): diminue très modérément l'intensité des stéréotypies | nombre de combats (souris [9]): diminue le nombre de combats | durée d'immobilité "de désespoir" (souris [10]): diminue la durée d'immobilité | comportement et réactivités (rat [11]; 64 mg/kg i.p.): sédation pendant 3 heures avec diminution | comportement et réactivités (rat [11]; 256 mg/kg i.p.): sédation pendant 3 heures | durée du sommeil barbiturique (souris [12]): diminue la durée du sommeil barbiturique | comportement et réactivités (souris [3]; souris, 512 mg/kg i.p.): sédation pendant 2 à 3 heures | comportement et réactivités (souris [3]; souris, 128, 32 et 8 mg/kg i.p.): pas de symptômes nets | symptômes (souris [4]; 256 mg/kg i.p.): mêmes symptômes | mortalité (souris [4]; 1024 et 512 mg/kg i.p.): pas de mortalité | symptômes (souris [4]; 1024 et 512 mg/kg i.p.): crampes abdominales, dyspnée
